Laboratory results: patent US20260355274A1 (Onkure, Inc., priority 2022, published 2026)
pIC50: −log10 of the molar value.

Key:
[1] = metabolism to active compound; settings: to OKI-006
Description: The following figures are illustrative of specific embodiments of the invention and are not intended to otherwise limit the scope of the invention as described herein. OKI-005 is an in vitro optimized tool compound. […] In the figures, “bini” is equivalent to binimetinib (a MEK 1/2 inhibitor) and “enco” is equivalent to encorafenib (a BRAF inhibitor).

[2] = system: SKMEL2 melanoma cell line; experiment: 72 hour proliferation assay (CellTiter-Glo), SKMEL2 melanoma, NRAS mutated; format: cell-based; settings: combined with binimetinib
Experimental: (§1) In particular, cells are grown in multi-well plates and incubated with the OKI-005 and binimetinib for 72 hours. The number of viable cells is determined by luminescence readout after the addition of CellTiter-Glo (CTG) dye.
In particular, in FIGS. 9A and 9B, cells are grown in multi-well plates and incubated with the OKI-005 and binimetinib for 72 hours. The number of viable cells is determined by luminescence readout after the addition of CellTiter-Glo (CTG) dye. SEM is the standard error of the mean, […]

[3] = system: MGMT-positive human tumor cell lines versus MGMT-negative human tumor cell lines; experiment: synergy in MGMT-positive versus MGMT-negative tumor cell lines; format: cell-based; settings: combination with binimetinib compared to OKI-005 or binimetinib alone
[4] = system: AGS human gastric adenocarcinoma hyperdiploid cell line; experiment: 72 hour proliferation assay (CellTiter-Glo), AGS, KRAS G12D; format: cell-based
Experimental: as §1
(§2) FIGS. 12A, 12B and 12C illustrate the results of studies of the combination of OKI-005 with each of binimetinib, GDC-0994 and sotorasib in the NCI-H358 (NSCLC KRAS^G12C) cell line. FIGS. 12D, 12E and 12F illustrate the results of studies of the combination of OKI-005 with each of binimetinib, GDC-0994 and MRTX1133 (a KRAS^G12D Inhibitor) in the AGS (Gastric KRAS^G12D) cell line. […] In particular, cells are grown in multi-well plates and incubated with the OKI-005 and binimetinib for 72 hours. The number of viable cells is determined by luminescence readout after the addition of CellTiter-Glo (CTG) dye.

[5] = system: NCI-H358 non-small cell lung cancer cell line; experiment: 72 hour proliferation assay (CellTiter-Glo), NCI-H358, KRAS G12C; format: cell-based
Experimental: as §1, §2

[6] = system: human uveal melanoma cell line 92-1; experiment: 72 hour proliferation assay (CellTiter-Glo), uveal melanoma 92-1; format: cell-based; settings: combined with binimetinib, GNAQ/11 Q209L
Experimental: as §1

[7] = system: RAS mutated cell lines and RAS WT cell lines; experiment: 72-hour proliferation assay, RAS mutated versus RAS wild-type cell lines; format: cell-based; settings: combined with binimetinib, physiologically relevant concentrations, Day 3 compared to Day 0
Description: . The RAS mutated cell lines and the RAS WT cell lines involved in this study represent conventional and well known cell lines for this purpose. See, e.g., FIG. 16.

[8] = system: human uveal melanoma cell line MP46; experiment: 72 hour proliferation assay (CellTiter-Glo), uveal melanoma MP46; format: cell-based; settings: combined with binimetinib, GNAQ/11 Q209L
Experimental: as §1

[9] = system: patients with solid tumors; experiment: Phase 1 clinical trials in patients with solid tumors; format: in vivo, human; settings: Phase 1, single agent, oral
advanced cancer patients = experiment: maximally-tolerated dose in advanced cancer patients; format: in vivo, human
Description: It will be appreciated that appropriate dosages can vary from patient to patient. Determining the optimal dosage will generally involve the balancing of the level of therapeutic benefit against any risk or deleterious side effects of the treatments described herein. The selected dosage level will depend on a variety of factors including, but not limited to, the activity of the particular compound, the route of administration, the time of administration, the rate of excretion of the compound, the duration of the treatment, other drugs, compounds, or materials used in combination, and the age, sex, weight, condition, general health, and prior medical history of the patient. The amount(s) of the compound(s) administered and the route of administration will ultimately be at the discretion of a physician. […] On Schedule 2, the MTD was 200 mg daily on a continuous dosing regimen and on Schedule 3, the MTD was 300 mg for 5 days on and 2 days off each week.

[10] = system: RAS-pathway mutated models; experiment: preclinical activity in RAS-pathway mutated models; format: in vivo; settings: in combination with binimetinib
Description: As an example of the frequency of mutations associated with various cancers, mutations in NRAS account for 20% of all melanomas and affect approximately 65,000 patients worldwide. Such melanomas have a tendency to be more aggressive than their wild-type counterparts and frequently have poor outcomes. Current therapies for NRAS-mutant melanoma remain limited, with little efficacy. No targeted therapies are currently available post PD1i.

SKMEL2 xenograft = experiment: SKMEL2 NRAS mutated xenograft, tumor growth and regressions; format: in vivo, mouse; settings: for tumor growth delay and regressions: single agent, SKMEL2 NRAS mutated xenograft
Description: (§3) As used herein, “Son/2off” refers to a dosing schedule of 5 days on and 2 days off each week. […] Glyceraldehyde 3-phosphate dehydrogenase (GAPDH) was used as a control.

[11] = system: HT29 BRAF^V600E colorectal (CRC) xenografts; experiment: HT29 BRAF V600E colorectal xenografts, regressions; format: in vivo, mouse; settings: combined with binimetinib and encorafenib, following two weeks of dosing
mouse xenograft models = settings: with binimetinib
Ac-H3K9 = Ac-H3K9 in SKMEL2 tumors (HDACi PD); format: in vivo; settings: 2 hours post dose
Description: as §3

[12] = system: NCI-H358 KRAS^G12C non-small cell lung cancer xenografts; experiment: NCI-H358 KRAS G12C NSCLC xenografts, regressions; format: in vivo, mouse; settings: combined with sotorasib, 50-day period after dosing
Description: As used herein, “4on/3off” refers to a dosing schedule of 4 days on and 3 days off each week.

[13] = mouse body weight change, HT29 xenograft study; format: in vivo; settings: combined with binimetinib and encorafenib, up to 15 days after randomization
HDAC 5 = HDAC 5 (Homo sapiens, UniProt Q9UQL6); experiment: enzymatic inhibition of HDAC 5; format: biochemical
HDAC 5, sequence (Q9UQL6 whole entry): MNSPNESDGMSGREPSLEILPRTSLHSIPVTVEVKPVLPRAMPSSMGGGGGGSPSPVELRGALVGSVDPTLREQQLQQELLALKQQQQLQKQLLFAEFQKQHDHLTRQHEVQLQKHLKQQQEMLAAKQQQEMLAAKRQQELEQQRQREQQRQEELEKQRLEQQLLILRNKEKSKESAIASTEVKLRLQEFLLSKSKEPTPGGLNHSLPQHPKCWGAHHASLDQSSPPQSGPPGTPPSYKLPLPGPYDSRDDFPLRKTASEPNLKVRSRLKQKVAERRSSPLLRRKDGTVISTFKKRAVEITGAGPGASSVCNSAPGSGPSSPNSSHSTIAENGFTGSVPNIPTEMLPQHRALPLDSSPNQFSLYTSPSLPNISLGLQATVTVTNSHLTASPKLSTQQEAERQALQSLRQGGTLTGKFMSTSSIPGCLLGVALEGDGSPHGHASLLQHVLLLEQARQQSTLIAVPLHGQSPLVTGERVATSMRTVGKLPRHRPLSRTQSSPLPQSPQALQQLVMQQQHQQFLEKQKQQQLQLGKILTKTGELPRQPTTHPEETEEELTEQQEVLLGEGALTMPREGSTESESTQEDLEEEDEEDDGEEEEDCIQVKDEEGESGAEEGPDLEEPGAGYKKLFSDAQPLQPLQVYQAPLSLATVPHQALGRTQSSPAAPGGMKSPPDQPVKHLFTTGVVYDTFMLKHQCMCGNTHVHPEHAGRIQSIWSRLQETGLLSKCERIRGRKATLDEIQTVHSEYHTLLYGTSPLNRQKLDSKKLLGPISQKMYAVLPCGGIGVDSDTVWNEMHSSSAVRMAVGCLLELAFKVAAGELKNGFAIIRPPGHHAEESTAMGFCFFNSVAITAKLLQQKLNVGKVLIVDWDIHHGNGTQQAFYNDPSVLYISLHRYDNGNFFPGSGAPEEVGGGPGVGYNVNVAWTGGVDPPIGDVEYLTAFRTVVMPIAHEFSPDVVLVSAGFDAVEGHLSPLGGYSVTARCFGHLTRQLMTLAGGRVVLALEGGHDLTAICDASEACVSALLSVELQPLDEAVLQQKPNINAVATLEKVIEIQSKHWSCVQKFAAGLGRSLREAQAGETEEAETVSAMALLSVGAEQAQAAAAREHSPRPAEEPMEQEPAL
Description: (§4) The mammalian HDACs can be divided into four classes depending on their sequence homology, sub-cellular distribution and catalytic activity. Class I, Il and IV HDACs have a Zn^2+ cofactor in the catalytic site. Class III HDACs contain sirtuins 1-7 and are NAD^+-dependent. Class I (HDACs 1, 2, 3 and 8) share the same homology as Rpd3 and are preliminarily distributed in the nucleus of normal cells. Class II HDACs can be subdivided into class IIa HDACs and class Ilb HDACs. Class IIa enzymes (HDAC 4, 5, 7 and 9) shuttle between the nucleus and cytoplasm and are located in specific tissues such as the brain, heart, and muscle. Class IIb (HDACs 6 and 10) are chiefly located in the cytoplasm.

HDAC 7 = HDAC 7 (Homo sapiens, UniProt Q8WUI4); experiment: enzymatic inhibition of HDAC 7; format: biochemical
HDAC 7, sequence (Q8WUI4 whole entry): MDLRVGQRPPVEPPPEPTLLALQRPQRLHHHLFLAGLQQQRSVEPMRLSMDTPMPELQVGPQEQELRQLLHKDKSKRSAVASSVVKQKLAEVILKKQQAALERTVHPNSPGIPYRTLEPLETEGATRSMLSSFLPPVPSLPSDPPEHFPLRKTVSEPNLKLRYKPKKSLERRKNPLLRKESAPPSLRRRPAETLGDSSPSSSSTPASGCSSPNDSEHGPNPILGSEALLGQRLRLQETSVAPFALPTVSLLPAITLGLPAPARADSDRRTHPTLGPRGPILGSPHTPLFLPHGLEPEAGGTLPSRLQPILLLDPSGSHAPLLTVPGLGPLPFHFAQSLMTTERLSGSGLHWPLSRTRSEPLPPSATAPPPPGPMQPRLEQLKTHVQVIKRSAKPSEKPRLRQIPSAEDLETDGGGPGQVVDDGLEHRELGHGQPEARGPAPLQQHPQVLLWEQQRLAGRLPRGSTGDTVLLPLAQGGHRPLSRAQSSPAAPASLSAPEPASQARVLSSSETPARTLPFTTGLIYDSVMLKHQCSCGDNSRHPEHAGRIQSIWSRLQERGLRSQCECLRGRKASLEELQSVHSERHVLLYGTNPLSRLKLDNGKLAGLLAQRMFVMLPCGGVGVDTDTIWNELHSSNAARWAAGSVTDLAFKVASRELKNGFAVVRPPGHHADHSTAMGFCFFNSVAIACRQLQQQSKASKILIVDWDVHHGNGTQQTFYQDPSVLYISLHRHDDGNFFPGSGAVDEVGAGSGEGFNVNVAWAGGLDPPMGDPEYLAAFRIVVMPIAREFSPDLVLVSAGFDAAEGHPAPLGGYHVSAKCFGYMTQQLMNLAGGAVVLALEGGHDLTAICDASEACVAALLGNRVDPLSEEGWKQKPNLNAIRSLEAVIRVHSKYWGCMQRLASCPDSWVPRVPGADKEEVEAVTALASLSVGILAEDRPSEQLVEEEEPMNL
Description: as §4

HDAC 4 = HDAC 4 (Homo sapiens, UniProt P56524); experiment: enzymatic inhibition of HDAC 4; format: biochemical
HDAC 4, sequence (P56524 whole entry): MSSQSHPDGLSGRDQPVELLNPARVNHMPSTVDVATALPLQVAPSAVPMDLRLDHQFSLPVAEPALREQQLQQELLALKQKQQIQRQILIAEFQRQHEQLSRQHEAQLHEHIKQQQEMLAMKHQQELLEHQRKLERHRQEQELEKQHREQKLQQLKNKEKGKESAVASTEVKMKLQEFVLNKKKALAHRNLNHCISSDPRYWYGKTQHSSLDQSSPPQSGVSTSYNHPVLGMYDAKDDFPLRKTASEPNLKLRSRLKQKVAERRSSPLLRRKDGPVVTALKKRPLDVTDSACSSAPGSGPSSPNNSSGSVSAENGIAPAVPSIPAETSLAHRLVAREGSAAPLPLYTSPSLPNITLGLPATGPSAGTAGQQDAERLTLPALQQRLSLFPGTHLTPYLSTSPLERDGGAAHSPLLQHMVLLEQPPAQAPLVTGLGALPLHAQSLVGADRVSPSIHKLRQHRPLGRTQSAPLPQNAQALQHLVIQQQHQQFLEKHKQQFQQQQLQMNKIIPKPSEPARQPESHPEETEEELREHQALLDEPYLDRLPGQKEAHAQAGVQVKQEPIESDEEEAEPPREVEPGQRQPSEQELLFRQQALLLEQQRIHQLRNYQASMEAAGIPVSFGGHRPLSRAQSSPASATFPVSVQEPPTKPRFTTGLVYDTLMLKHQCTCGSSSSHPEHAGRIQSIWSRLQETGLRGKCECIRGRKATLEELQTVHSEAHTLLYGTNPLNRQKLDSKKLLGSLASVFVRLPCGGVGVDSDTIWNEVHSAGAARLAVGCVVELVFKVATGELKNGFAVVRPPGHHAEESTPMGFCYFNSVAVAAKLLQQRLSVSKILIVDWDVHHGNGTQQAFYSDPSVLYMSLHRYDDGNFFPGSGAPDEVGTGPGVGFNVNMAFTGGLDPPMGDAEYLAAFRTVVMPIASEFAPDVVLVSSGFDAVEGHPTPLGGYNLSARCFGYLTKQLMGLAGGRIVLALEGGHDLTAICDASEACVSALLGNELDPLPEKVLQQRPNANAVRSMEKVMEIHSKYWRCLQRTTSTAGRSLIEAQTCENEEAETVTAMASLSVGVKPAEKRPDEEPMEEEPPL
Description: as §4

HDAC 11 = HDAC 11 (Homo sapiens, UniProt Q96DB2); experiment: enzymatic inhibition of HDAC 11; format: biochemical; settings: HDAC 11, Class IV
HDAC 11, sequence (Q96DB2 whole entry): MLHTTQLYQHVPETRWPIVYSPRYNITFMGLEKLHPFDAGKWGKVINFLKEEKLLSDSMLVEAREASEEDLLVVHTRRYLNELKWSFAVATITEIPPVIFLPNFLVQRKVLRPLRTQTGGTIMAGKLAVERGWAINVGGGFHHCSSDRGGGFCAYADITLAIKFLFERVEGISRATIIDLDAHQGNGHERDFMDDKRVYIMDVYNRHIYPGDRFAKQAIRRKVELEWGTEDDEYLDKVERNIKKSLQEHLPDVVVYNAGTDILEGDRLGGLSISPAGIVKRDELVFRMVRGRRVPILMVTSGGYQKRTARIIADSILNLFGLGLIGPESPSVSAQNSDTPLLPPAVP
Description: as §4

HDAC 6 = HDAC 6 (Homo sapiens, UniProt Q9UBN7); experiment: enzymatic inhibition of HDAC 6; format: biochemical
Description: as §4

HDAC 10 = HDAC 10 (Homo sapiens, UniProt Q969S8); experiment: enzymatic inhibition of HDAC 10; format: biochemical; settings: HDAC 10, Class IIb
Description: as §4

HDAC 2 = HDAC 2 (Homo sapiens, UniProt Q92769); experiment: enzymatic inhibition of HDAC 2; format: biochemical
HDAC 2, sequence (Q92769 whole entry): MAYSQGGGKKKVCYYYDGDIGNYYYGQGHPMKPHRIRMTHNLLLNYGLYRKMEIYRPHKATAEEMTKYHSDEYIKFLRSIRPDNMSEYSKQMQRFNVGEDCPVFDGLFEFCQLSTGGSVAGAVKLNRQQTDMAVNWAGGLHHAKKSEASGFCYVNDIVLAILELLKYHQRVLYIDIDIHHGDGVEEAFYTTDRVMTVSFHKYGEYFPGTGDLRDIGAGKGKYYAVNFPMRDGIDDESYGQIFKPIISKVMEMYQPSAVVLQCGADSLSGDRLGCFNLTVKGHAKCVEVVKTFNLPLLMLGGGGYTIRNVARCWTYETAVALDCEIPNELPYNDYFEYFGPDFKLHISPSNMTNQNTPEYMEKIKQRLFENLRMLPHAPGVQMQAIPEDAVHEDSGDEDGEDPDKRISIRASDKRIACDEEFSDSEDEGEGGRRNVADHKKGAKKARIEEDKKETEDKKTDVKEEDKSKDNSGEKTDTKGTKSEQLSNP
Description: as §4

HDAC 9 = HDAC 9 (Homo sapiens, UniProt Q9UKV0); experiment: enzymatic inhibition of HDAC 9; format: biochemical
HDAC 9, sequence (Q9UKV0 whole entry): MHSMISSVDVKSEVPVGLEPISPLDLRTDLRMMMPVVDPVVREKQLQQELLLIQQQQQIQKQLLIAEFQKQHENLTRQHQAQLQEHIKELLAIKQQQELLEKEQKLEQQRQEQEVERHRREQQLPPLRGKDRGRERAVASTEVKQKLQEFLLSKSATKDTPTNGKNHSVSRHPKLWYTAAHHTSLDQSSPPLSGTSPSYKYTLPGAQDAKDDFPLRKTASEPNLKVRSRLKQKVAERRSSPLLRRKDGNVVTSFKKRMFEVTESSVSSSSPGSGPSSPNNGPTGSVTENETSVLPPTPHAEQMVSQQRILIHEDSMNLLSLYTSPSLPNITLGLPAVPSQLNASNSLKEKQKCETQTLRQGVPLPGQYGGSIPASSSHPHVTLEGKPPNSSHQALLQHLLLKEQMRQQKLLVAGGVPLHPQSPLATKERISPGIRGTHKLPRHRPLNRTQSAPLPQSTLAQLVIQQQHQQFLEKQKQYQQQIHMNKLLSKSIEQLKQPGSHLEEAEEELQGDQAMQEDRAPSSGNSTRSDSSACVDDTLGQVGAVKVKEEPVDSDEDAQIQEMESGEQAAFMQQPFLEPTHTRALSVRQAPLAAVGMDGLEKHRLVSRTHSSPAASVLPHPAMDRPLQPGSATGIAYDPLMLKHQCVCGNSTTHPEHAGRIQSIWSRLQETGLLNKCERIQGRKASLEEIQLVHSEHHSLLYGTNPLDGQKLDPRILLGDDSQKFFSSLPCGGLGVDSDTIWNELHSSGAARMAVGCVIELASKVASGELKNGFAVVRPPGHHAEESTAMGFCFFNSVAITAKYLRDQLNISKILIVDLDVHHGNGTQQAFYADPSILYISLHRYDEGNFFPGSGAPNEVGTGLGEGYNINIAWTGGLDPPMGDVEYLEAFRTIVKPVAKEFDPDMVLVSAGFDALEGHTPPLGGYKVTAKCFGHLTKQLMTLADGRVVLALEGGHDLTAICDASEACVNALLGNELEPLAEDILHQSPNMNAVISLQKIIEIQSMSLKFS
Description: as §4

HDAC 8 = HDAC 8 (Homo sapiens, UniProt Q9BY41); experiment: enzymatic inhibition of HDAC 8; format: biochemical
Description: as §4

pERK = pERK in SKMEL2 tumors (MEKi PD); format: in vivo; settings: 2 hours post dose
Description: as §3

[14] = system: KRAS^G12C colorectal cancer (CRC); settings: single-agent RAS pathway inhibition; cited from earlier work
[15] = system: KRAS^G12C pancreatic cancer; settings: single-agent RAS pathway inhibition; cited from earlier work
[16] = system: BRAF^V600E colorectal cancer (CRC); settings: single-agent RAS pathway inhibition; cited from earlier work
BRAF^V600E melanoma = settings: single-agent RAS pathway inhibition; cited from earlier work
[17] = combined with binimetinib, 72 hours, KRAS

CCCCCCCC(=O)SCC/C=C/[C@@H]1CC(=O)NCc2nc(cs2)C(=O)NC(C)(C)C(=O)N[C@@H](C(C)C)C(=O)O1 [OKI-005]
metabolism to active compound [1]: metabolized to the same active compound, OKI-006
anti-proliferative activity, synergy ([2]; 72 hours, NRAS): synergistic anti-proliferative activity
cell growth inhibition and cell death (PARP cleavage) ([2]; NRAS-mutated SKMEL2): significant cell growth inhibition and cell death
synergistic effects in MGMT-positive versus MGMT-negative cell lines [3]: synergistic effects
Loewe synergy ([4]; combined with GDC-0994, KRAS^G12D): combination synergy was observed in all cases
Loewe synergy ([4]; combined with MRTX1133, KRAS^G12D): combination synergy was observed in all cases
anti-proliferative activity, synergy [4, 17]: synergistic anti-proliferative activity
Loewe synergy ([4]; combined with binimetinib, 72 hours, KRAS^G12D): combination synergy was observed in all cases
Loewe synergy ([5]; combined with GDC-0994, KRAS^G12C): combination synergy was observed in all cases
anti-proliferative activity, synergy [5, 17]: synergistic anti-proliferative activity
Loewe synergy ([5]; combined with binimetinib, 72 hours, KRAS^G12C): combination synergy was observed in all cases
Loewe synergy ([5]; combined with sotorasib, KRAS^G12C): combination synergy was observed in all cases
anti-proliferative activity, synergy [6]: synergistic anti-proliferative activity
synergy, RAS mutated compared to RAS wild-type [7]: a superior effect greater than that of either agent alone
anti-proliferative activity, synergy [8]: synergistic anti-proliferative activity

CC(C)[C@H](N)C(=O)SCC/C=C/[C@@H]1CC(=O)NCc2nc(cs2)C(=O)NC(C)(C)C(=O)N[C@@H](C(C)C)C(=O)O1.O=S(=O)(O)c1ccccc1 [OKI-179]
metabolism to active compound [1]: metabolized to the same active compound, OKI-006
pharmacodynamic activity [9]: strong pharmacodynamic activity at tolerated doses
recommended Phase 2 dose (RP2D) (advanced cancer patients; Schedule 1, oral, 4 days on and 3 days off each week): 300 mg
MTD (advanced cancer patients; Schedule 1, oral, daily, 4 days on and 3 days off each week): 450 mg
MTD (advanced cancer patients; Schedule 2, oral, daily, continuous dosing regimen): 200 mg
MTD (advanced cancer patients; Schedule 3, oral, 5 days on and 2 days off each week): 300 mg
regressions [10]: regressions in multiple RAS-pathway mutated models
regressions (SKMEL2 xenograft; combination with binimetinib versus either single agent, following two weeks of dosing): significantly increased regressions compared to either single agent
tumor growth delay and regressions (SKMEL2 xenograft): tumor growth delay, but few regressions
regressions [11]: significantly increased regressions compared to either OKI-179 alone or the combination of binimetinib and encorafenib
synergy at physiologically-relevant doses (mouse xenograft models): synergy associated with OKI-179 and binimetinib occurs at physiologically-relevant doses of OKI-179
on-target PD activity, Ac-H3K9 (HDACi PD) (Ac-H3K9): strong on-target PD activity
regressions [12]: significantly increased regressions compared to either OKI-179 or sotorasib alone
mouse body weight loss [13]: greater weight loss than either OKI-179 alone or the combination of binimetinib and encorafenib

C/C=C1\NC(=O)[C@@H](CS)NC(=O)[C@@H](C(C)C)NC(=O)C[C@@H](/C=C/CCS)OC(=O)[C@H](C(C)C)NC1=O [Red-FK228, reference compound]
pIC50 (HDAC 5): < 6.00
pIC50 (HDAC 7): < 6.00
pIC50 (HDAC 4): 6.19
pIC50 (HDAC 11): 9.52
pIC50 (HDAC 6): 6.65
pIC50 (HDAC 10): 9.05
pIC50 (HDAC 2): 9.00
pIC50 (HDAC 9): < 6.00
pIC50 (HDAC 8): < 6.00

Cn1cnc2c(F)c(Nc3ccc(Br)cc3F)c(C(=O)NOCCO)cc21 [binimetinib, reference compound]
tumor growth delay and regressions (SKMEL2 xenograft): tumor growth delay, but few regressions
on-target PD activity, pERK (MEKi PD) (pERK): strong on-target PD activity

C=CC(=O)N1CCN(c2nc(=O)n(-c3c(C)ccnc3C(C)C)c3nc(-c4c(O)cccc4F)c(F)cc23)[C@@H](C)C1 [sotorasib]
effectiveness [14]: relative ineffectiveness
effectiveness [15]: relative ineffectiveness

CCCS(=O)(=O)Nc1ccc(F)c(C(=O)c2c[nH]c3ncc(-c4ccc(Cl)cc4)cc23)c1F [vemurafenib]
effectiveness [16]: relative ineffectiveness
effectiveness (BRAF^V600E melanoma): relative ineffectiveness
